Assay results reported in PubChem BioAssay (NCI).
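Protocol summary: plate cells (96-well), add compound at 5 concentrations, incubate 48 h, interpolate endpoints linearly. TGI: total growth inhibition.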

Tests used:
Assay in all cases: inhibition of tumour cell growth, NCI panel, 48 h
T-47D breast = system: T-47D breast
RXF 393 renal = system: RXF 393 renal
NCI-H226 lung = system: NCI-H226 lung
U251 CNS = system: U251 CNS
MDA-N = system: MDA-N
COLO 205 colon = system: COLO 205 colon
PC-3 prostate = system: PC-3 prostate
OVCAR-8 ovarian = system: OVCAR-8 ovarian
DU-145 prostate = system: DU-145 prostate
SR leukemia = system: SR leukemia
786-0 renal = system: 786-0 renal
SNB-19 CNS = system: SNB-19 CNS
HT29 colon = system: HT29 colon
BT-549 breast = system: BT-549 breast
MALME-3M melanoma = system: MALME-3M melanoma
NCI-H23 lung = system: NCI-H23 lung
ACHN renal = system: ACHN renal
HCT-15 colon = system: HCT-15 colon
EKVX NSCLC = system: EKVX NSCLC
SF-268 CNS = system: SF-268 CNS
NCI-H522 lung = system: NCI-H522 lung
HCC-2998 colon = system: HCC-2998 colon
HOP-92 NSCLC = system: HOP-92 NSCLC
SNB-75 CNS = system: SNB-75 CNS
SK-MEL-28 melanoma = system: SK-MEL-28 melanoma
NCI/ADR-RES ovarian = system: NCI/ADR-RES ovarian
SF-539 CNS = system: SF-539 CNS
NCI-H460 lung = system: NCI-H460 lung
MOLT-4 leukemia = system: MOLT-4 leukemia
UACC-257 melanoma = system: UACC-257 melanoma
SK-MEL-5 melanoma = system: SK-MEL-5 melanoma
HOP-62 NSCLC = system: HOP-62 NSCLC
HCT-116 colon = system: HCT-116 colon
MCF7 breast = system: MCF7 breast
K-562 leukemia = system: K-562 leukemia
MDA-MB-435 = system: MDA-MB-435
UO-31 renal = system: UO-31 renal
OVCAR-3 ovarian = system: OVCAR-3 ovarian
LOX IMVI melanoma = system: LOX IMVI melanoma
RPMI-8226 leukemia = system: RPMI-8226 leukemia
SF-295 CNS = system: SF-295 CNS
CCRF-CEM leukemia = system: CCRF-CEM leukemia
SW-620 colon = system: SW-620 colon
SK-MEL-2 melanoma = system: SK-MEL-2 melanoma
HL-60(TB) leukemia = system: HL-60(TB) leukemia
OVCAR-4 ovarian = system: OVCAR-4 ovarian
OVCAR-5 ovarian = system: OVCAR-5 ovarian
UACC-62 melanoma = system: UACC-62 melanoma
TK-10 renal = system: TK-10 renal
CAKI-1 renal = system: CAKI-1 renal
M14 melanoma = system: M14 melanoma
KM12 colon = system: KM12 colon
SN12C renal = system: SN12C renal
IGROV1 ovarian = system: IGROV1 ovarian
MDA-MB-231 breast = system: MDA-MB-231 breast
SK-OV-3 ovarian = system: SK-OV-3 ovarian
A498 renal = system: A498 renal
HS 578T breast = system: HS 578T breast
A549 NSCLC = system: A549 NSCLC

## O=C(NNCc1ccc(Cl)cc1)Nc1cccc2ccccc12
T-47D breast
  TGI: > 100 µM
RXF 393 renal
  TGI: > 100 µM
NCI-H226 lung
  TGI: > 100 µM
U251 CNS
  TGI: > 100 µM
MDA-N
  TGI: > 100 µM
COLO 205 colon
  TGI: > 100 µM
PC-3 prostate
  TGI: > 100 µM
OVCAR-8 ovarian
  TGI: > 100 µM
DU-145 prostate
  TGI: > 100 µM
SR leukemia
  TGI: > 100 µM
786-0 renal
  TGI: > 100 µM
SNB-19 CNS
  TGI: > 100 µM
HT29 colon
  TGI: > 100 µM
BT-549 breast
  TGI: > 100 µM
MALME-3M melanoma
  TGI: > 100 µM
NCI-H23 lung
  TGI: > 100 µM
ACHN renal
  TGI: > 100 µM
HCT-15 colon
  TGI: > 100 µM
EKVX NSCLC
  TGI: > 100 µM
SF-268 CNS
  TGI: > 100 µM
NCI-H522 lung
  TGI: > 100 µM
HCC-2998 colon
  TGI: > 100 µM
HOP-92 NSCLC
  TGI: > 100 µM
SNB-75 CNS
  TGI: > 100 µM
SK-MEL-28 melanoma
  TGI: > 100 µM
NCI/ADR-RES ovarian
  TGI: > 100 µM
SF-539 CNS
  TGI: > 100 µM
NCI-H460 lung
  TGI: > 100 µM
MOLT-4 leukemia
  TGI: > 100 µM
UACC-257 melanoma
  TGI: > 100 µM
SK-MEL-5 melanoma
  TGI: > 100 µM
HOP-62 NSCLC
  TGI: > 100 µM
HCT-116 colon
  TGI: > 100 µM
MCF7 breast
  TGI: > 100 µM
K-562 leukemia
  TGI: > 100 µM
MDA-MB-435
  TGI: > 100 µM
UO-31 renal
  TGI: > 100 µM
OVCAR-3 ovarian
  TGI: > 100 µM
LOX IMVI melanoma
  TGI: > 100 µM
RPMI-8226 leukemia
  TGI: 84.4 µM
SF-295 CNS
  TGI: > 100 µM
CCRF-CEM leukemia
  TGI: > 100 µM
SW-620 colon
  TGI: > 100 µM
SK-MEL-2 melanoma
  TGI: > 100 µM
HL-60(TB) leukemia
  TGI: > 100 µM
OVCAR-4 ovarian
  TGI: > 100 µM
OVCAR-5 ovarian
  TGI: > 100 µM
UACC-62 melanoma
  TGI: > 100 µM
TK-10 renal
  TGI: > 100 µM
CAKI-1 renal
  TGI: > 100 µM
M14 melanoma
  TGI: > 100 µM
KM12 colon
  TGI: > 100 µM
SN12C renal
  TGI: > 100 µM
IGROV1 ovarian
  TGI: > 100 µM

## COc1ccc(CCN2CCc3c(C)c(C#N)c4nc5ccccc5n4c32)cc1OC
RXF 393 renal
  TGI: > 100 µM
NCI-H226 lung
  TGI: 93.7 µM
MDA-MB-231 breast
  TGI: 86.1 µM
U251 CNS
  TGI: > 100 µM
MDA-N
  TGI: 43.1 µM
SK-OV-3 ovarian
  TGI: > 100 µM
COLO 205 colon
  TGI: 89.8 µM
PC-3 prostate
  TGI: > 100 µM
OVCAR-8 ovarian
  TGI: > 100 µM
DU-145 prostate
  TGI: > 100 µM
A498 renal
  TGI: > 100 µM
786-0 renal
  TGI: > 100 µM
SNB-19 CNS
  TGI: > 100 µM
HT29 colon
  TGI: > 100 µM
BT-549 breast
  TGI: 84.2 µM
MALME-3M melanoma
  TGI: 99.8 µM
NCI-H23 lung
  TGI: > 100 µM
ACHN renal
  TGI: > 100 µM
HCT-15 colon
  TGI: > 100 µM
SF-268 CNS
  TGI: > 100 µM
NCI-H522 lung
  TGI: 57 µM
HCC-2998 colon
  TGI: > 100 µM
HOP-92 NSCLC
  TGI: 90.6 µM
SNB-75 CNS
  TGI: 88.7 µM
SK-MEL-28 melanoma
  TGI: > 100 µM
NCI/ADR-RES ovarian
  TGI: > 100 µM
SF-539 CNS
  TGI: > 100 µM
NCI-H460 lung
  TGI: > 100 µM
HS 578T breast
  TGI: 60.6 µM
UACC-257 melanoma
  TGI: > 100 µM
SK-MEL-5 melanoma
  TGI: 52 µM
HOP-62 NSCLC
  TGI: > 100 µM
HCT-116 colon
  TGI: > 100 µM
A549 NSCLC
  TGI: > 100 µM
MCF7 breast
  TGI: > 100 µM
K-562 leukemia
  TGI: 55.7 µM
MDA-MB-435
  TGI: 45 µM
UO-31 renal
  TGI: > 100 µM
OVCAR-3 ovarian
  TGI: > 100 µM
LOX IMVI melanoma
  TGI: > 100 µM
SF-295 CNS
  TGI: > 100 µM
CCRF-CEM leukemia
  TGI: > 100 µM
SW-620 colon
  TGI: 97.3 µM
SK-MEL-2 melanoma
  TGI: 44.7 µM
HL-60(TB) leukemia
  TGI: > 100 µM
OVCAR-4 ovarian
  TGI: > 100 µM
OVCAR-5 ovarian
  TGI: > 100 µM
UACC-62 melanoma
  TGI: 95.3 µM
TK-10 renal
  TGI: > 100 µM
CAKI-1 renal
  TGI: > 100 µM
M14 melanoma
  TGI: > 100 µM
SN12C renal
  TGI: > 100 µM
IGROV1 ovarian
  TGI: > 100 µM
